Test results taken from PubChem BioAssay (NCI).
Values joined by “and” are separate entries in the source; they are usually repeats but may differ in a detail not shown here. Identical values can stand only once.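 Briefly, cells in 96-well plates were exposed to five compound concentrations for 48 h, and endpoints were estimated by linear interpolation. GI50 marks 50% less growth. TGI is the concentration that stops growth completely.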

Columns and labels:
Experiment in all cases: NCI-60 cell line screen, 48 h
NCI-H522 lung = system: NCI-H522 lung
OVCAR-5 ovarian = system: OVCAR-5 ovarian
A549 NSCLC = system: A549 NSCLC
M14 melanoma = system: M14 melanoma
DU-145 prostate = system: DU-145 prostate
MCF7 breast = system: MCF7 breast
KM12 colon = system: KM12 colon
A498 renal = system: A498 renal
RXF 393 renal = system: RXF 393 renal
SN12C renal = system: SN12C renal

SMILES	GI50 (NCI-H522 lung)	TGI (NCI-H522 lung)	GI50 (OVCAR-5 ovarian)	TGI (OVCAR-5 ovarian)	GI50 (A549 NSCLC)	TGI (A549 NSCLC)	GI50 (M14 melanoma)	TGI (M14 melanoma)	GI50 (DU-145 prostate)	TGI (DU-145 prostate)	GI50 (MCF7 breast)	TGI (MCF7 breast)	GI50 (KM12 colon)	TGI (KM12 colon)	GI50 (A498 renal)	TGI (A498 renal)	GI50 (RXF 393 renal)	TGI (RXF 393 renal)	GI50 (SN12C renal)	TGI (SN12C renal)
CCOCC1(COCC)CCC(c2[nH]ncc2CN(C)CCNC)CC1	> 100 µM	> 100 µM	> 100 µM	> 100 µM	> 100 µM	> 100 µM	> 100 µM	> 100 µM	> 100 µM	> 100 µM	> 100 µM	> 100 µM	> 100 µM	> 100 µM	8.25 µM	> 100 µM	65.2 µM	> 100 µM	> 100 µM	> 100 µM
CN=C(N)c1ccc(N=C(N)c2ccc(-c3ccc(C(N)=Nc4ccc(C(N)=NC)cc4)cc3)cc2)cc1	18.4 µM	> 100 µM	> 100 µM	> 100 µM	> 100 µM	> 100 µM	82.2 µM	> 100 µM	41.2 µM	> 100 µM	19 µM	> 100 µM	61.9 µM	> 100 µM	> 100 µM	> 100 µM	39.4 µM	> 100 µM	> 100 µM	> 100 µM
CC(=O)OCC1OC(n2c(=S)n(-c3ccc([N+](=O)[O-])cc3)c(=O)c3ccccc32)C(OC(C)=O)C(OC(C)=O)C1OC(C)=O (stereo not drawn)	–	45.3 µM and 33.7 µM	32.2 µM and > 100 µM	> 100 µM	23.1 µM and 32 µM	> 100 µM	16 µM and 30.7 µM	48.8 µM and > 100 µM	–	> 100 µM	–	52.6 µM	25.5 µM and 17.4 µM	> 75.4 µM and 46.9 µM	21.9 µM	> 76.2 µM and 53.6 µM	4.61 µM and 14.3 µM	17.1 µM and 29.6 µM	–	70.1 µM and 44.4 µM
CC(C)=CCc1cc2c(cc1O)C1=C(C(=O)C3=C(C1=O)S(=O)(=O)CCN3)C(C=C(C)C)O2 (stereo not drawn)	0.568 µM	1.85 µM	2.73 µM	5.93 µM	2.23 µM	5.59 µM	0.35 µM	1.2 µM	0.309 µM	0.597 µM	0.354 µM	1.31 µM	2.05 µM	6.99 µM	3.54 µM	5.96 µM	0.596 µM	2.26 µM	0.294 µM	0.651 µM
CN1CCN(CC(=O)N(C)c2ccc(N=C(c3ccccc3)c3c(O)[nH]c4ccc(C#N)cc34)cc2)CC1	5.29 µM	22.4 µM	7.11 µM	19.2 µM	3.13 µM	21.2 µM	1.51 µM	3.27 µM	3.9 µM	14.4 µM	0.451 µM	13.7 µM	0.0516 µM	6.03 µM	0.176 µM	2.46 µM	1.39 µM	3.38 µM	1.56 µM	11.4 µM
C=C1C[C@H]2C=Nc3cc(OCCCOc4cc5c(cc4OC)C(=O)N4CC(=C)C[C@H]4C=N5)c(OC)cc3C(=O)N2C1	–	0.0309 µM	0.0197 µM and < 0.0205 µM	–	0.0135 µM	> 100 µM	0.00858 µM and < 0.013 µM	0.0846 µM	0.00496 µM and < 0.0133 µM	24 µM	–	41.3 µM	0.0201 µM	0.0722 µM and 0.0169 µM	–	0.0578 µM	–	< 0.0292 µM	0.00151 µM	–
COc1ccc2c(c1)OC(N)=C(C#N)C2c1cc(OC)c(OC)c(OC)c1 (stereo not drawn)	0.0194 µM	0.0631 µM	0.059 µM	> 100 µM	0.0401 µM	> 100 µM	0.0336 µM	> 100 µM	0.0279 µM	0.0802 µM	0.0361 µM	> 100 µM	–	–	0.0222 µM	0.148 µM	0.0344 µM	73.6 µM	0.0494 µM	> 100 µM
N#CCn1c(=O)c(Oc2ccc(F)cc2F)cc2cnc(NC3CCOCC3)nc21	15 µM	> 25 µM	> 25 µM	> 25 µM	> 25 µM	> 25 µM	> 25 µM	> 25 µM	> 25 µM	> 25 µM	> 25 µM	> 25 µM	> 25 µM	> 25 µM	24.7 µM	> 25 µM	> 17.9 µM	> 25 µM	> 25 µM	> 25 µM
O=C1NC(=NCCc2ccc(F)cc2)S/C1=C\c1ccc2ncccc2c1	> 25 µM	> 25 µM	> 25 µM	> 25 µM	> 25 µM	> 25 µM	> 25 µM	> 25 µM	> 25 µM	> 25 µM	> 23.1 µM	> 25 µM	> 25 µM	> 25 µM	> 25 µM	> 25 µM	> 25 µM	> 25 µM	> 25 µM	> 25 µM
c1cc(N[C@@H]2CCNC2)nc(-c2cnc3ccc(-c4cn[nH]c4)cn23)c1	0.916 µM	3.55 µM	6.06 µM	> 95.4 µM	22.8 µM	> 100 µM	13.7 µM	44.9 µM	9.09 µM	> 100 µM	3.31 µM	20.4 µM	0.868 µM	51.4 µM	7.01 µM	29 µM	2.56 µM	11.7 µM	0.795 µM	13.4 µM
COc1ccc(C(O)c2cc3c(N)c(C(=O)Nc4ccc(Cl)cc4)sc3nc2C)cc1 (stereo not drawn)	4.05 µM	38.1 µM	3.97 µM	25.5 µM	3.53 µM	14.9 µM	1.74 µM	29.9 µM	2.71 µM	7.66 µM	0.707 µM	17.2 µM	1.64 µM	7.1 µM	3 µM	12.4 µM	2.25 µM	11.6 µM	5.53 µM	24.9 µM
Clc1nccc2c(-c3csc(-c4c[nH]c5ccc(Br)cc45)n3)c[nH]c12	2.28 µM	6.86 µM	3.14 µM	9.88 µM	3.83 µM	12.8 µM	2.22 µM	5.62 µM	1.76 µM	14 µM	2.2 µM	11.6 µM	2.15 µM	5.7 µM	1.56 µM	4.84 µM	1.48 µM	3.43 µM	3.35 µM	14.4 µM
